From patent publication USRE47689E1, “Compounds for treating spinal muscular atrophy” (PTC Therapeutics, Inc., priority 2011, dated 2019)
Counter-ions that a name gives are not always drawn. Like-named read-outs stand apart in the source and are kept apart here.

Key:
[1] = tested on: SMN2 minigene (full length SMN2 minigene mRNA containing SMN2 exon 7); experiment: SMN2 minigene mRNA splicing RT-qPCR assay in cultured cells; type: cell-based, human; details: Homo sapiens, HEK293-H, read-out: EC1.5x for production of full length SMN2 mRNA
In short: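 Lysates → one-step RT-qPCR, minigene-specific primers (0.4 μM final) + GAPDH multiplex, 40 cycles. FL/GAPDH vs DMSO; EC1.5x, star-binned.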

Smn protein = Smn protein assay in cultured cells (SMN HTRF); type: cell-based, human; details: 48 hours; for EC1.5x (concentration giving 1.5-fold Smn protein increase): SMA Type 1 patient fibroblast cells (GM03813), 7-point concentration curve, SMN HTRF, concentration producing 1.5 times Smn protein vs DMSO vehicle control, read-out: EC1.5x for Smn protein expression; for maximum fold (Fold) increase of Smn protein: SMA patient fibroblast cells, 7-point concentration data, fold increase relative to vehicle control (SMN HTRF)
In short: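 Smn in SMA fibroblast lysates, measured by anti-SMN HTRF after 48 h compound exposure; EC1.5x from fold change over vehicle.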

[2] = HEK293H cells stably transfected with SMN2-A minigene, 24 hours, 7-point concentration curve, 1.5-fold relative to vehicle-treated cells

melting point	Compound	EC (1.5-fold) ([1]; 24 h) [µM]	EC (1.5-fold) [1, 2] [µM]	EC1.5x (concentration giving 1.5-fold Smn protein increase) (Smn protein) [nM]	maximum fold (Fold) increase of Smn protein (Smn protein)
195 to 198 °C	CCN1CC[C@@H](Oc2ccc3cc(-c4nc5ccccc5s4)c(=O)oc3c2)C1 [Compound 127, 3-(1,3-benzothiazol-2-yl)-7-{[(3R)-1-ethylpyrrolidin-3-yl]oxy}-2H-chromen-2-one]	–	1 to 3	–	–
152 to 159 °C	CN1CCN(c2ccc3cc(-c4ccn(-c5ccccc5)n4)c(=O)oc3c2)CC1 [Cpd 74, 7-(4-methylpiperazin-1-yl)-3-(1-phenyl-1H-pyrazol-3-yl)-2H-chromen-2-one]	–	3 to 30	–	–
127 to 130 °C	COc1cccc(-c2cc3ccc(N4CCNCC4)cc3oc2=O)c1 [Compound 77, 3-(3-methoxyphenyl)-7-(piperazin-1-yl)-2H-chromen-2-one]	–	3 to 30	–	–
217 to 219 °C	Cc1cccc2oc(-c3cc4ccc(N5CCN(C)CC5)cc4oc3=O)nc12 [Compound 21, 3-(4-methyl-1,3-benzoxazol-2-yl)-7-(4-methylpiperazin-1-yl)-2H-chromen-2-one]	–	3 to 30	–	–
210 to 212 °C	Cc1cccn2cc(-c3cc4ccc(N5CCN(CCO)CC5)cc4oc3=O)nc12 [Compound 102, 7-[4-(2-hydroxyethyl)piperazin-1-yl]-3-(8-methylimidazo[1,2-a]pyridin-2-yl)-2H-chromen-2-one]	–	1 to 3	–	–
297 to 307 °C	Cl.O=c1oc2cc(N3CCNCC3)ccc2cc1-c1nc2cccc(C(F)(F)F)c2o1	–	–	–	–
339 to 341 °C	Cl.O=c1oc2cc(N3CCNCC3)ccc2cc1-c1nc2c(C(F)(F)F)cccc2o1	–	–	–	–
193 to 196 °C	O=c1oc2cc(CN3CCC(O)CC3)ccc2cc1-c1nc2c(Cl)cccc2s1 [Compound 273, 3-(4-chloro-1,3-benzothiazol-2-yl)-7-[(4-hydroxypiperidin-1-yl)methyl]-2H-chromen-2-one]	–	1 to 3	–	–
222 to 224 °C	CN(C)C1CCN(c2ccc3cc(-c4nc5ccccc5o4)c(=O)oc3c2)C1 (centres unmarked) [Compound 48, 3-(1,3-benzoxazol-2-yl)-7-[3-(dimethylamino)pyrrolidin-1-yl]-2H-chromen-2-one]	–	1 to 3	–	–
> 300 °C	O=c1oc2cc(N3C[C@@H]4C[C@H]3CN4)ccc2cc1-c1cn2cccnc2n1 (as salt: hydrochloride) [Compound 129, 7-[(1S,4S)-2,5-diazabicyclo[2.2.1]hept-2-yl]-3-(imidazo[1,2a]pyrimidin-2-yl)-2H-chromen-2-one hydrochloride (1:3)]	–	–	–	–
238 to 248 °C	O=C(Nc1ccccc1)c1cc2ccc(N3CCNCC3)cc2oc1=O (as salt: trifluoroacetate) [Cpd 3, 2-oxo-N-phenyl-7-(piperazin-1-yl)-2H-chromene-3-carboxamide trifluoroacetate]	–	–	–	–
271 to 275 °C	Cc1ccn2cc(-c3cc4ccc(O[C@@H]5CCNC5)cc4oc3=O)nc2c1 (as salt: hydrochloride) [Compound 323, 3-(7-methylimidazo[1,2-a]pyridin-2-yl)-7-[(3R)-pyirolidin-3-yloxy]-2H-chromen-2-one hydrochloride (1:2)]	–	–	–	–
290 °C (dec.)	O=c1oc2cc(N3CCNCC3)ccc2cc1-c1nc2c(Cl)cccc2s1 (as salt: hydrochloride) [Cpd 5, 3-(4-chloro-1,3-benzothiazol-2-yl)-7-(piperazin-1-yl)-2H-chromen-2-one hydrochloride]	–	–	–	–
205 to 211 °C	Cc1cn2cc(-c3cc4ccc(C5=CCNCC5)cc4oc3=O)nc2c(C)n1	–	–	–	–
–	Cc1cn2cc(-c3cc4ccc(N5CCN[C@H](C)C5)cc4oc3=O)cnc2n1 [Compound 650, 3-(2-methylimidazo[1,2-a]pyrimidin-6-yl)-7-[(3R)-3-methylpiperazin-1-yl]-2H-chromen-2-one]	–	< 0.1	300 to 1000	**** (fold increase between >1.5 and ≤1.65)
–	O=C(O)C(F)(F)F.O=c1oc2cc(N3CCNCC3)ccc2cc1-c1nc2cccc(C(F)(F)F)c2o1 [Compound 2, 7-(piperazin-1-yl)-3[7-(trifluoromethyl)-1,3-benzoxazol-2-yl]-2H-chromen-2-one trifluoroacetate]	–	0.3 to 1	–	* (maximum fold increase of ≤1.2)
–	C[C@@H]1CN(c2ccc3cc(-c4cn5ccccc5n4)c(=O)oc3c2)C[C@H](C)N1C [Compound 140, 3-(imidazo[1,2-a]pyridin-2-yl)-7-[(3R,5S)-3,4,5-trimethylpiperazin-1-yl]-2H-chromen-2-one]	–	0.3 to 1	–	** (fold increase between >1.2 and ≤1.35)
250 °C (dec.)	O=c1oc2cc(N3CCNCC3)ccc2cc1-c1nc2ccccc2s1 (as salt: hydrochloride) [Cpd 4, 3-(1,3-benzothiazol-2-yl)-7-(piperazin-1-yl)-2H-chromen-2-one hydrochloride]	–	–	–	–
–	Cc1cn2cc(-c3cc4ccc(N5C[C@@H]6C[C@H]5CN6)cc4oc3=O)nc2c(C)n1 [Compound 648, 7-[(1S,4S)-2,5-diazabicyclo[2.2.1]hept-2-yl]-3-(6,8-dimethylimidazo[1,2-a]pyrazin-2-yl)-2H-chromen-2-one]	–	< 0.1	< 300	***** (fold increase >1.65)
–	Cc1cn2cc(-c3cc4ccc(N5CCNCC5)cc4oc3=O)cc(F)c2n1 [Compound 986, 3-(8-fluoro-2-methylimidazo[1,2-a]pyridin-6-yl)-7-(piperazin-1-yl)-2H-chromen-2-one]	–	< 0.1	< 300	***** (fold increase >1.65)
–	Cc1cn2cc(-c3cc4ccc(CCCNCCO)cc4oc3=O)nc2c(C)n1 [Compound 879, 3-(6,8-dimethylimidazo[1,2-a]pyrazin-2-yl)-7-{3-[(2-hydroxyethyl)amino]propyl}-2H-chromen-2-one]	–	< 0.1	< 300	**** (fold increase between >1.5 and ≤1.65)
–	Cc1cn2cc(-c3cc4ccc(N5CCN[C@@H](C(C)C)C5)cc4oc3=O)nc2c(C)n1 [Compound 808, 3-(6,8-dimethylimidazo[1,2-a]pyrazin-2-yl)-7-[(3S)-3-(propan-2-yl)piperazin-1-yl]-2H-chromen-2-one]	–	< 0.1	< 300	**** (fold increase between >1.5 and ≤1.65)
–	Cc1ccn2cc(-c3cc4ccc(O[C@@H]5CCNC5)cc4oc3=O)nc2c1 [Compound 323, 3-(7-methylimidazo[1,2-a]pyridin-2-yl)-7-[(3R)-pyirolidin-3-yloxy]-2H-chromen-2-one hydrochloride (1:2)]	–	0.3 to 1	–	** (fold increase between >1.2 and ≤1.35)
–	CN1CCN(C(=O)c2ccc3cc(-c4nc5c(Cl)cccc5s4)c(=O)oc3c2)CC1 [Cpd 28, 3-(4-chloro-1,3-benzothiazol-2-yl)-7-[(4-methylpiperazin-1-yl)carbonyl]-2H-chromen-2-one]	–	3 to 30	–	* (maximum fold increase of ≤1.2)
–	Cc1cn2cc(-c3cc4ccc(N5CCN6C(=O)CCC6C5)cc4oc3=O)nc2c(C)n1 (centres unmarked) [Compound 973, 2-[3-(6,8-dimethylimidazo[1,2-a]pyrazin-2-yl)-2-oxo-2H-chromen-7-yl]hexahydropyrrolo[1,2-a]pyrazin-6(2H)-one]	–	3 to 30	–	* (maximum fold increase of ≤1.2)
–	Cc1cn2cc(-c3cc4ccc(N5CC[C@@H](CN)C5)cc4oc3=O)nc2c(C)n1 [Compound 964, 7-[(3S)-3-(aminomethyl)pyrrolidin-1-yl]-3-(6,8-dimethylimidazo[1,2-a]pyrazin-2-yl)-2H-chromen-2-one]	–	0.1 to 0.3	–	** (fold increase between >1.2 and ≤1.35)
–	Cc1cn2cc(-c3cc4ccc(N5CCN[C@@H](C)C5)cc4oc3=O)nc2c(C)n1 [Compound 537, 3-(6,8-dimethylimidazo[1,2-a]pyrazin-2-yl)-7-[(3S)-3-methylpiperazin-1-yl]-2H-chromen-2-one]	–	< 0.1	< 300	***** (fold increase >1.65)

Compound	melting point	EC (1.5-fold) ([1]; 24 h) [µM]	EC (1.5-fold) [1, 2] [µM]	EC1.5x (concentration giving 1.5-fold Smn protein increase) (Smn protein) [nM]	maximum fold (Fold) increase of Smn protein (Smn protein)
O=c1oc2cc(N3CCNCC3)ccc2cc1Nc1ncccn1 [Compound 33, 7-(piperazin-1-yl)-3-(pyrimidin-2-ylamino)-2H-chromen-2-one]	193 to 195 °C	3 to 30	–	–	–
O=c1oc2cc(N3CCNCC3)ccc2cc1Nc1cccnc1 [Compound 66, 7-(piperazin-1-yl)-3-(pyridin-3-ylamino)-2H-chromen-2-one]	172 to 175 °C	3 to 30	–	–	–
Cn1ccc(-c2cc3ccc(N4CCNCC4)cc3oc2=O)n1 [Cpd 38, 3-(1-methyl-1H-pyrazol-3-yl)-7-(piperazin-1-yl)-2H-chromen-2-one]	224 to 228 °C	1 to 3	–	–	–
O=c1oc2cc(OC3CCNC3)ccc2cc1-c1cn2cccnc2n1 (stereo in doubt) (as salt: hydrochloride) [Cpd 321, 3-(imidazo[1,2-a]pyrimidin-2-yl)-7-[(3R)-pyrrolidin-3-yloxy]-2H-chromen-2-one hydrochloride (1:2)]	240 to 250 °C	–	–	–	–
